Data from patent US9169223B2, “Functionalised antifouling compounds and use thereof” (Agency for Science, Technology and Research, priority 2010, dated 2015).
In brackets after ≈: the same amount, converted by molar mass.

Experiments:
[1] = tested on: stage II naupliar larvae of the barnacle Amphibalanus amphitrite; test: Toxicity assay with barnacle nauplii; type: in vivo; settings: Amphibalanus amphitrite (barnacle), stage II naupliar larvae, in vivo
Procedure: (§1) Biological assays were conducted with larval barnacles. Barnacles are dominant and tenacious members of marine fouling communities, and often serve as a substrate for less resistant organisms. Therefore, historically they have been used as a model organism for antifouling studies. To determine the biological response of larvae to test compounds, two bioassays were performed: settlement (using settlement stage cyprids), and toxicity (using nauplii). Procedures followed methods standard in the field, which were first described by Rittschof et al. (1992).
(§2) Stock solutions of each compound were made at 50 mg/ml. Pure compounds were diluted in DMSO and sonicated. Stock solutions were stored at −20° C. in 4 ml amber screw cap vials until use. For bioassays, a small amount of stock solution was diluted in 1 μm filtered seawater (in a glass scintillation vial). The solution was then sonicated for 10 minutes. To obtain the desired concentration range, serial dilutions of the test solution were made. As control, a serial dilution of the equivalent amounts of DMSO in seawater was used.
Toxicity assays employed stage II naupliar larvae of the barnacle Amphibalanus amphitrite (previously Balanus amphitrite: Pitombo, 2004). Assay procedures were modified from Rittschof et al. (1992). Adult A. amphitrite were collected from inter-tidal areas near the Kranji mangrove, Singapore. Larval culture was based on Rittschof et al. (1984). Following collection, nauplii were concentrated for use in bioassays by placing a fiber optic light source at one side of the container, and pipetting from the resulting dense cloud of nauplii.
In order to determine LD50 values for each compound, compounds were tested over a range of concentrations between 0-50 μg/ml. For each assay, each compound at each concentration was tested in triplicate with a single batch of nauplii. The overall assay was conducted twice, using two different batches of nauplii. Two controls were run along with each assay (in triplicate): filtered seawater only, and DMSO at […] (since DMSO was used as a solvent for test compounds, this concentration is equivalent to the concentration of DMSO in the highest test compound concentration).
For assays, approximately 20 nauplii (in 50 μl filtered seawater) were added to 1 ml test solution or control, in a 2 ml glass vial (La Pha Pack® PN 11-14-0544). Assays were run for 22-24 hours at 25-27° C. After this time, living and dead nauplii were counted using a Bogorov tray. Nauplii that were approaching death were scored as dead. Data for all assays was combined and LD50 was calculated (where possible) using a probit analysis (Libermann, 1983). If LD50 could not be calculated using probit analysis, values were extrapolated based on plotted data.

barnacle cyprids = test: Settlement assay with barnacle cyprids; type: in vivo, Amphibalanus amphitrite
Procedure: as §1, with “nauplii).” for “nauplii). Procedures followed methods standard in the field, which were first described by Rittschof et al. (1992).”
as §2
Nauplii were cultured as described above, and then reared at 25° C. on an algal mixture of 1:1 v/v of Tetraselmis suecica and Chaetoceros muelleri (approximately density 5×10^5 cells per ml). Under these conditions, nauplii typically metamorphose to cyprids in 5 days. Cyprids were aged at 4° C. for 2 days.
Settlement assays were conducted in 7 ml neutral glass vials (Samco® T103/V1; 34×23 mm diameter). For assays, each solution was made at twice the desired final concentration; 0.5 ml of this solution was transferred to vials. To each vial, cyprids were added by transferring 0.5 ml filtered seawater containing 20-40 aged cyprids. As in toxicity assays: each compound at each concentration was run in triplicate with cyprids from a single batch; two controls (filtered seawater and DMSO) were run along with each assays; and the overall assay was conducted twice, using two different batches of cyprids.
Assays were conducted for 24 hours, after which time the number of settled cyprids, the number of free swimming (unsettled) cyprids, and the number of dead cyprids were counted for each vial. Both metamorphosed, juvenile barnacles and cyprids that had committed to settlement (glued themselves to the vial), but had not yet metamorphosed, were counted as ‘settled’. Data was expressed as percent settlement. […] If ED50 could not be calculated using probit analysis, values were extrapolated based on plotted data.

[2] = Observation on standing (note in characterisation); type: physicochemical; settings: HRMS consistent with free alcohol
Procedure: To a round bottomed flask containing DMAP (2 mg) was added a solution of 2-(4-hydroxymethyl)phenyl-1-(piperidin-1-yl)hexanone (30 mg, 0.10 mmol) in dry dichloromethane (2 mL). To the resulting mixture was added dry NEt3 (208 μL, 1.5 mmol) followed by acetic anhydride (100 μL, 1.0 mmol). The resulting mixture was allowed to stir for 3 hours. After this time, the reaction mixture was washed with saturated NaHCO3, water and then brine and the organic phase was dried (Na2SO4) and concentrated under reduced pressure. The title compound was obtained as a colourless oil (20 mg, 60%) following purification by flash column chromatography (50% EtOAc in hexane, Rf=0.7). ^1H NMR (400 MHz, CDCl3) δ 0.86 (t, J=7 Hz, 3H); 1.0-1.2 (2×m, 2H); 1.2-1.5 (multiple signals, 8H); 1.68 (m, 1H); 4.53 (m+s, 4H); 3.33 (m, 1H), 3.39 (m, 1H); 3.49 (m, 1H); 3.60 (m, 1H); 3.70 (t, J=7 Hz, 1H); 5.07 (s, 2H); 7.72 (m, 4H). ^13C NMR (75 MHz, CDCl3) δ14.01, 21.08, 22.72, 24.57, 25.60, 26.20, 30.09, 34.77, 43.20, 46.66, 48.38, 66.07, 128.03, 128.58, 134.24, 141.02, 171.09, 171.17.
To a round bottomed flask containing DMAP (2 mg) was added a solution of 2-(4-hydroxymethyl)phenyl-1-(piperidin-1-yl)hexanone (30 mg, 0.10 mmol) in dry CH2Cl2 (2 mL). To the resulting mixture was added dry NEt3 ([…], 1.5 mmol) followed by acetic anhydride (100 μL, 1.0 mmol). The resulting mixture was allowed to stir for 3 hours. […]

## CCCCC(C(=O)N1CCCCC1)c1ccc(COC(C)=O)cc1 (stereo not shown) [Compound 16.3, 2-(4-acetoxymethyl)phenyl-1-(piperidin-1-yl)hexanone]
[1]
  LD50: >50 µg/mL
Barnacle cyprids; Amphibalanus amphitrite, 24 h, anti-settlement, barnacle cyprids, 24 hours, concentration causing 50% reduction in settlement vs controls, read-out: ED50 (the source's name)
  IC50: 6.35 mg/L (≈ 19.2 µM)
Barnacle cyprids; therapeutic ratio, LD50 (nauplii) / ED50 (cyprids)
  TR (LD50/ED50): >7.87
[2]
  stability on standing: hydrolyses on standing
